Results from patent US10766869B2, “Triazoles for the treatment of demyelinating dieases” (Vertex Pharmaceuticals Incorporated, priority 2015, dated 2020).
Read-outs that look alike come from different tables or passages of the source.

Tested on: primary rat mixed cortical cells
Assay: In vitro myelination assay (MBP positive myelin strands, fold myelin pixels above background)
Format: cell-based
Conditions: Rattus norvegicus; for fold induction at 1 µM: 1.0 μM compound; for fold induction at 10 µM: 10.0 μM compound
Excerpt: In Vitro Myelination Assay
Compounds were screened for their ability to induce myelination using a primary rat mixed cortical cell culture assay, which contains neurons, oligodendrocyte precursor cells, oligodendrocytes, astrocytes and microglia. The assay quantifies myelination by measuring myelin basic protein (MBP) immunofluorescent positive myelin strands from images taken using a Cellomics Array Scan (model Arrayscan VTI HCS Reader) or a Molecular Devices Image Xpress (model IXM XL) high content imager. The myelin strands were quantitated using a custom created myelin detection software program. Test compounds were dissolved in DMSO to make a 10 mM initial stock solution. Dilutions were made in myelination medium to obtain the final solutions for the assay and were tested in primary rat mixed cortical cells at selected doses.
Primary rat mixed cortical cells were prepared from harvested cerebral cortices from postnatal day 1 (P1) rats (P1 Rat CD® IGS pups) were purchased from Charles River) in Complete Dissociation Medium, wherein the meninges were removed and the cortical tissue chopped with a razor blade into ˜1 mm^3 pieces. Tissue from 1-3 pups was collected and placed into 15 ml conical tubes in a total volume of 5 ml of Complete Dissociation Medium. Activated papain (3 ml) was added to each 15 ml conical tube and tissue was incubated at 37° C. for 30 minutes. After the 30 minute incubation, DNase (Sigma D4527; 75 μl of a 1 mg/ml stock) was added to each tube, followed by mechanical trituration using a 2 ml serological pipette and autopipettor to gently dissociate the tissue. Following trituration, larger tissue pieces were allowed to settle by gravity, and the supernatant containing dissociated cells was transferred to a 50 ml conical tube with 4 ml of trypsin inhibitor. Cells were pelleted by centrifugation, resuspended in myelination medium and filtered through a 40 μm filter. Cells were then seeded in 96-well plates (BD Biosciences, Black, PDL-coated, Cat. No. 356640) at 87,500-95,000 cells/well in a final volume of 200 μl of Myelination Medium in the presence or absence of compound and cultured for 14 days in a humidified 37° C. incubator with 5% CO2. Half the medium was removed and replaced with fresh medium containing 1× compound on days 6 and 10. Using a Biotek automatic plate washer (model Biomek® FXP Laboratory Automation Workstation), cells were fixed with 4% paraformaldehyde on day 14, washed with PBS and blocked in 5% normal goat serum (Vector Laboratories, S-1000) in 0.1% PBS-TritonX-100 (PBST) for 1 hour. Cells were stained with 1:500 anti-MBP (Covance, cat # SMI99) primary antibody in 1% normal goat serum in 0.1% PBST for 2 hours at room temperature followed by 2 washes with PBST. A final incubation in secondary antibody (1:1000, Invitrogen, Alexa-488 anti-mouse IgG2b) and 1:10,000 Hoechst dye in 1% normal goat serum in 0.1% PBST was performed for 2 hours at room temperature. Plates were washed with PBS and then scanned on a Cellomics Array Scan using a 10× objective (25 images per well) or the Image Xpress using a 10× objective (9 image per well). Images were analyzed using Vertex myelin detection software (described below) to quantify total MBP myelin pixels per well. Fold myelin pixels above background at two concentrations (1.0 μM and 10.0 μM) relative to baseline of no added compound are reported below in Table 4. Standard deviation for each compound concentration was calculated using all replicates and using a standard deviation formula commonly used in the art.
One of skill in the art would recognize that for this type of primary neuronal mixed cell assay variability between different assay runs is to be expected even though the protocol is the same for each assay run. For instance, variability may be due to small differences in cell viability, cell density, age of the animals, etc.
Vertex Myelin Detection Software: […]

[1] = relative to baseline of no added compound, read-out: Fold myelin pixels above background, 1.0 μM
[2] = relative to baseline of no added compound, read-out: Fold myelin pixels above background, 10.0 μM
[3] = read-out: Fold myelin pixels above background relative to baseline of no added compound
[4] = relative to baseline of no added compound, read-out: Fold myelin pixels above background

Row | Structure (SMILES) | fold induction at 1 µM [1] | fold induction at 10 µM [2] | fold induction at 1 µM [3] | fold induction at 10 µM [3] | fold induction at 1 µM [4] | fold induction at 10 µM [4]
1 | COc1ccc(-n2cnc(Nc3cc(C4CC4)nc(N4CCOCC4)c3)n2)cc1OC [Compound 354, 2-cyclopropyl-N-[1-(3,4-dimethoxyphenyl)-1,2,4-triazol-3-yl]-6-morpholino-pyridin-4-amine] | 1 to 10 | 100 to 1000 |  |  |  | 
2 | Cc1cc(Nc2ncn(-c3cccnc3)n2)cc(N2CCN(C3COC3)CC2)c1 [Compound 275, N-[3-methyl-5-[4-(oxetan-3-yl)piperazin-1-yl]phenyl]-1-(3-pyridyl)-1,2,4-triazol-3-amine] | 10 to 100 | 100 to 1000 |  |  |  | 
3 | Cc1cc(Nc2ncn(-c3ccccc3)n2)cc(N2CCN(C3CCOCC3)CC2)c1 [Compound 289, N-[3-methyl-5-(4-tetrahydropyran-4-ylpiperazin-1-yl)phenyl]-1-phenyl-1,2,4-triazol-3-amine] | 1000 to 10000 | 1 to 10 |  |  |  | 
4 | Cc1cc(Nc2ncn(-c3cc(F)cc(F)c3)n2)cc(N2CC(CN3CCOCC3)C2)c1 [Compound 866, 1-(3,5-difluorophenyl)-N-[3-methyl-5-[3-(morpholinomethyl)azetidin-1-yl]phenyl]-1,2,4-triazol-3-amine] |  |  | 1 to 10 | 10 to 100 |  | 
5 | Cc1cc(Nc2ncn(-c3cccc(C(F)F)c3)n2)cc(N2CCN(C3COC3)CC2)c1 [Compound 833, 1-[3-(difluoromethyl)phenyl]-N-[3-methyl-5-[4-(oxetan-3-yl)piperazin-1-yl]phenyl]-1,2,4-triazol-3-amine] |  |  | 1 to 10 | ≤ 1 |  | 
6 | N#Cc1cc(Nc2ncn(-c3cccc(F)c3)n2)cc(N2CCN(C3COC3)CC2)c1 [Compound 793, 3-[[1-(3-fluorophenyl)-1,2,4-triazol-3-yl]amino]-5-[4-(oxetan-3-yl)piperazin-1-yl]benzonitrile] |  |  | 1 to 10 | ≤ 1 |  | 
7 | COCC1CCN(c2cc(C)cc(Nc3ncn(-c4ccc(F)c(F)c4)n3)c2)CC1 [Compound 299, 1-(3,4-difluorophenyl)-N-[3-[4-(methoxymethyl)-1-piperidyl]-5-methyl-phenyl]-1,2,4-triazol-3-amine] | 100 to 1000 | 10 to 100 |  |  |  | 
8 | [2H]C1(N2CCN(c3cc(C)cc(Nc4ncn(-c5ccccc5)n4)c3)CC2)COC1 [Compound 898, N-[3-[4-(3-deuteriooxetan-3-yl)piperazin-1-yl]-5-methyl-phenyl]-1-phenyl-1,2,4-triazol-3-amine] |  |  | 10 to 100 | ≤ 1 |  | 
9 | Fc1cc(-n2cnc(Nc3cc(C(F)F)cc(N4CCOCC4)c3)n2)ccn1 [Compound 85, N-[3-(difluoromethyl)-5-morpholino-phenyl]-1-(2-fluoro-4-pyridyl)-1,2,4-triazol-3-amine] | 100 to 1000 | 100 to 1000 |  |  |  | 
10 | Cc1cc(Nc2ncn(-c3cccc(F)c3)n2)nc(N2CC(N3CCOCC3)C2)c1 [Compound 538, N-[1-(3-fluorophenyl)-1,2,4-triazol-3-yl]-4-methyl-6-(3-morpholinoazetidin-1-yl)pyridin-2-amine] |  |  |  |  | 1 to 10 | 1 to 10
11 | Cc1cc(Nc2cc(C)[nH]n2)cc(Nc2ncn(-c3ccccc3)n2)c1 [Compound 699, 5-methyl-N3-(5-methyl-1H-pyrazol-3-yl)-N1-(1-phenyl-1,2,4-triazol-3-yl)benzene-1,3-diamine] |  |  |  |  | 1 to 10 | ≤ 1
12 | Cc1cc(Nc2ncn(-c3cc(F)cc(F)c3)n2)c(C)c(N2CCN(C3COC3)CC2)c1 [Compound 697, 1-(3,5-difluorophenyl)-N-[2,5-dimethyl-3-[4-(oxetan-3-yl)piperazin-1-yl]phenyl]-1,2,4-triazol-3-amine] |  |  |  |  | 1 to 10 | 10 to 100
13 | CCc1cc(Nc2ncn(-c3cncnc3)n2)cc(N2CCN(C3COC3)CC2)c1 [Compound 549, N-[3-ethyl-5-[4-(oxetan-3-yl)piperazin-1-yl]phenyl]-1-pyrimidin-5-yl-1,2,4-triazol-3-amine] |  |  |  |  | 1 to 10 | 10 to 100
14 | Cc1cc(Nc2ncn(-c3cc(F)cc(F)c3)n2)cc(N2CCN(CCN3CCCC3)CC2)c1 [Compound 944, 1-(3,5-difluorophenyl)-N-[3-methyl-5-[4-(2-pyrrolidin-1-ylethyl)piperazin-1-yl]phenyl]-1,2,4-triazol-3-amine] |  |  | 1 to 10 | ≤ 1 |  | 
15 | Fc1cc(Nc2ncn(-c3ccccn3)n2)cc(N2CCN(C3COC3)CC2)c1 [Compound 642, N-[3-fluoro-5-[4-(oxetan-3-yl)piperazin-1-yl]phenyl]-1-(2-pyridyl)-1,2,4-triazol-3-amine] |  |  |  |  | 1 to 10 | 10 to 100
16 | Cc1cc(Nc2ncn(-c3cc(F)cc(F)c3)n2)cc(N2CC(C(C)(C)O)C2)c1 [Compound 519, 2-[1-[3-[[1-(3,5-difluorophenyl)-1,2,4-triazol-3-yl]amino]-5-methyl-phenyl]azetidin-3-yl]propan-2-ol] |  |  |  |  | 100 to 1000 | ≤ 1
17 | COc1cc(Nc2ncn(-c3ccc(F)c(F)c3)n2)cc(N2CCN(C3COC3)CC2)c1 [Compound 183, 1-(3,4-difluorophenyl)-N-[3-methoxy-5-[4-(oxetan-3-yl)piperazin-1-yl]phenyl]-1,2,4-triazol-3-amine] | 100 to 1000 | 10 to 100 |  |  |  | 
18 | COCC1CCN(c2cc(Cl)cc(Nc3ncn(-c4ccccc4)n3)c2)CC1 [Compound 246, N-[3-chloro-5-[4-(methoxymethyl)-1-piperidyl]phenyl]-1-phenyl-1,2,4-triazol-3-amine] | 10 to 100 | 100 to 1000 |  |  |  | 
19 | Cc1cc(Nc2ncn(-c3cc(F)cc(F)c3)n2)cc(C2CCCNC2)c1 (stereo not shown) [Compound 429, 1-(3,5-difluorophenyl)-N-[3-methyl-5-(3-piperidyl)phenyl]-1,2,4-triazol-3-amine] |  |  |  |  | 1000 to 10000 | ≤ 1
20 | Cc1cc(Nc2ncn(-c3cc(F)cc(F)c3)n2)cc(N2CCC(N(C)C)CC2)c1 [Compound 948, 1-[3-[[1-(3,5-difluorophenyl)-1,2,4-triazol-3-yl]amino]-5-methyl-phenyl]-N,N-dimethyl-piperidin-4-amine] |  |  | 10 to 100 | ≤ 1 |  | 
21 | Cc1cc(Nc2ncn(-c3cc(F)cc(F)c3)n2)cc(C2CCCN(C3CC3)C2)c1 (stereo not shown) [Compound 466, N-[3-(1-cyclopropyl-3-piperidyl)-5-methyl-phenyl]-1-(3,5-difluorophenyl)-1,2,4-triazol-3-amine] |  |  |  |  | 100 to 1000 | ≤ 1
22 | [2H]C1([2H])N(c2cc(Nc3ncn(-c4cc(F)cc(F)c4)n3)cc(C(F)(F)F)c2)C([2H])([2H])C([2H])([2H])C([2H])([2H])C1([2H])[2H] [Compound 1032, N-[3-(2,2,3,3,4,4,5,5,6,6-decadeuterio-1-piperidyl)-5-(trifluoromethyl)phenyl]-1-(3,5-difluorophenyl)-1,2,4-triazol-3-amine] |  |  | 10 to 100 | 1 to 10 |  | 
23 | COC1CCN(c2cc(C)cc(Nc3ncn(-c4cc(F)cc(F)c4)n3)c2)C1 (stereo not shown) [Compound 164, 1-(3,5-difluorophenyl)-N-[3-(3-methoxypyrrolidin-1-yl)-5-methyl-phenyl]-1,2,4-triazol-3-amine] | 1 to 10 | 1 to 10 |  |  |  | 
